Assay [1] deals with TP53-binding protein 1 (Homo sapiens, UniProt Q12888). Kind of assay: Binding affinity to 6His-tagged and human 53BP1 tandem TUDOR domain (1488 to 1611 residues) expressed in Escherichia coli BL21(DE3)-T1R by ITC method.
For assay [2], the system named is T1, Lysine-specific demethylase 4A (Homo sapiens), O75164 [Y973A].
T1 sequence (whole entry): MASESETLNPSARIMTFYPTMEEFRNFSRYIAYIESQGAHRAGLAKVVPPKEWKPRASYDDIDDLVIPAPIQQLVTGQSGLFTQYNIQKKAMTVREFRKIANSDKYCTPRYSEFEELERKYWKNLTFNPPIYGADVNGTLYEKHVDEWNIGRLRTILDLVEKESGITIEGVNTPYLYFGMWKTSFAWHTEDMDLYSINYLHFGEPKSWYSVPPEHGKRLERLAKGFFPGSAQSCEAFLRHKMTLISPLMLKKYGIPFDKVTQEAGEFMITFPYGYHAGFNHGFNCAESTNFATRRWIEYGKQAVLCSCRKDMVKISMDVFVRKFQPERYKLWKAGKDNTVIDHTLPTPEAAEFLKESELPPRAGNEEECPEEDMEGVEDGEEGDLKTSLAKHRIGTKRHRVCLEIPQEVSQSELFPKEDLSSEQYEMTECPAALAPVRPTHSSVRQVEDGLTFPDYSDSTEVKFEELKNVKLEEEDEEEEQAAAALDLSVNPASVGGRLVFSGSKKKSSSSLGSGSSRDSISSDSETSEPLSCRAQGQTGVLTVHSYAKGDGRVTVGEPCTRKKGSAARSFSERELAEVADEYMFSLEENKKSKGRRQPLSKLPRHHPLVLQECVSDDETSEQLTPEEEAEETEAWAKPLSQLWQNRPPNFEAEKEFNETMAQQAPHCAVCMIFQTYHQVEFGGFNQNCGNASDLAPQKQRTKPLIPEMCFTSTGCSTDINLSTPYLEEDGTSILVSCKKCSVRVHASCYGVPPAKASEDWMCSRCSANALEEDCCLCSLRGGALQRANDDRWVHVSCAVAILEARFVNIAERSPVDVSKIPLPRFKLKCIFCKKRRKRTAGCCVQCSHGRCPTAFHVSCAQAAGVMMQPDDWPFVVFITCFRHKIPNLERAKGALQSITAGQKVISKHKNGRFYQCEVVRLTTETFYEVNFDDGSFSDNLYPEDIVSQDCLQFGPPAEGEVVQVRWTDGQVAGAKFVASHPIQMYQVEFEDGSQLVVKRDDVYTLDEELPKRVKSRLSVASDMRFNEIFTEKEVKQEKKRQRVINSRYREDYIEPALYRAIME
The experiment in a line: Binding affinity to thrombin cleavable N-terminal 6His tagged and 13C-IVLM labeled human KDM4A tandem TUDOR domain (897 to 1011 residues) Y973A mutant expressed in Escherichia coli BL21(DE3)-T1R by ITC method. Background: ITC needs no label: the signal is the heat of the interaction.

Assay [3] deals with T2, Lysine-specific demethylase 4A (Homo sapiens) (UniProt O75164).
T2 sequence (whole entry): T1 sequence (whole entry) with A973Y
Kind of assay: (§1) Inhibition of NanoLuc-KDM4A-TUDOR domain (unknown origin) binding to Histone H3.3-HaloTag expressed in 293T cells incubated for 18 hrs by Nano-BRET based target engagement assay. It is filed as cell-based. In general terms: Bioluminescence resonance energy transfer reports proximity on the nanometre scale.

Assay [4] addresses T3, Lysine-specific demethylase 4A (Homo sapiens, UniProt O75164).
T3 sequence (O75164 whole entry): T1 sequence (whole entry) with A973Y
Described as §1. It is filed as cell-based.

Data on one compound can be found in ChEMBL document CHEMBL4190382, “Targeting lysine specific demethylase 4A (KDM4A) tandem TUDOR domain - A fragment based approach” (Bioorg Med Chem Lett, 2018).

Numbering of substitutions follows the chain as printed. Active and inactive are the calls of the source. The rule behind the calls is not given here.

Sequence of TP53-binding protein 1 (Q12888 whole entry, the tested form may be a part): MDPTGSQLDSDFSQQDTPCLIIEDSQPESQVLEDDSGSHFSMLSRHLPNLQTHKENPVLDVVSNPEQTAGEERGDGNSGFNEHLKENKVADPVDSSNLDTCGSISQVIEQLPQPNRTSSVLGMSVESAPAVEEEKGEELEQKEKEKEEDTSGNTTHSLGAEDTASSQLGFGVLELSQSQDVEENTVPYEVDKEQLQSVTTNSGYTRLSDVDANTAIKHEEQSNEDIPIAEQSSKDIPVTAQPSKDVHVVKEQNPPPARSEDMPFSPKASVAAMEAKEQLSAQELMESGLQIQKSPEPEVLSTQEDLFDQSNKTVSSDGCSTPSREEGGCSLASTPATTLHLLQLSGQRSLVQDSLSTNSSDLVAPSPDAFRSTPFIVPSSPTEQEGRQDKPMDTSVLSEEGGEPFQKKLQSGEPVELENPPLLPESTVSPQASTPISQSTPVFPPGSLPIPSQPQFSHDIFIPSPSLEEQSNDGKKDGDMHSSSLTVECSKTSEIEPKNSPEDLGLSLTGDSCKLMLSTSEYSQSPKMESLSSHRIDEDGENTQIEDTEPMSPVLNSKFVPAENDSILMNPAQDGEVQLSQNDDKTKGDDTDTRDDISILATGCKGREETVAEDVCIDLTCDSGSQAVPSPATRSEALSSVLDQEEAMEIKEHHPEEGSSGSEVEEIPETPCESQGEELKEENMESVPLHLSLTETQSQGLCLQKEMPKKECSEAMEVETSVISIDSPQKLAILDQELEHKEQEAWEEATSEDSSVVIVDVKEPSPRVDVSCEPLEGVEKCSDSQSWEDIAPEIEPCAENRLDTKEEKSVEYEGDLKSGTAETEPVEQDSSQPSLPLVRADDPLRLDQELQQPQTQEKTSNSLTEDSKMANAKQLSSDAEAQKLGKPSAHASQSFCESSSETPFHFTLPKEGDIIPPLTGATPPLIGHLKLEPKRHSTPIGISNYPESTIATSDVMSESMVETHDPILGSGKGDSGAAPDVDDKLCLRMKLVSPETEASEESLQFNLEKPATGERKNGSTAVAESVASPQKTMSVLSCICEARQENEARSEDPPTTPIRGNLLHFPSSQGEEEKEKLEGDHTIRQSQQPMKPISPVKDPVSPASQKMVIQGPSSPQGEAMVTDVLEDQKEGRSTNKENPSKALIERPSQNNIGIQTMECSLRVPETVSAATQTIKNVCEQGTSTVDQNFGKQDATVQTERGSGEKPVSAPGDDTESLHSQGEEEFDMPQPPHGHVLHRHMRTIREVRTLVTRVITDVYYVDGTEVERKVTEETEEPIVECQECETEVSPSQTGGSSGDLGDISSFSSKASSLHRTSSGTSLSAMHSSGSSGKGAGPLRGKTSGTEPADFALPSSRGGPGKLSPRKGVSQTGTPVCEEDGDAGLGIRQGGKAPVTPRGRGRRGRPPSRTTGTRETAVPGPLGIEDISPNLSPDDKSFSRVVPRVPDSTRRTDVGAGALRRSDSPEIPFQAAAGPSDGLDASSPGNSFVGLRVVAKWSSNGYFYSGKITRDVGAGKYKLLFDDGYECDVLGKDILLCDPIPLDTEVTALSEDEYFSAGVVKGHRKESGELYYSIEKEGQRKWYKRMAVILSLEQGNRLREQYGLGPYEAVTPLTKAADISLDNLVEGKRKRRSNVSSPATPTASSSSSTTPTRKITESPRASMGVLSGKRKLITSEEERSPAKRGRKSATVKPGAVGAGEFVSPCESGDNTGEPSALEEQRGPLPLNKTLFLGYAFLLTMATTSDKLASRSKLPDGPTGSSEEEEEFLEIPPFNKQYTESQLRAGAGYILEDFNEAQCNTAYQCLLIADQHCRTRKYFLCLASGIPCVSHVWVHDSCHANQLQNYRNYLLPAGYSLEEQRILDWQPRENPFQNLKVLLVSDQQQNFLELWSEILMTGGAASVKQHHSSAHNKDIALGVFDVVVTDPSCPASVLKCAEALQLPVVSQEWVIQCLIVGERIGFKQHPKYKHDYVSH

The term EC50 denotes the concentration that produces a half-maximal response. A high value points to lower potency in that assay. As to `CN(C)C[C@H]1C2CCC(c3ccccc3)(C2)[C@H]1O` (some centres undefined), the Kd entry in assay [1] is listed as “Not Active”. Besides, in assay [2], the outcome was inactive. In addition, the inhibition entry in assay [3] was “Dose-dependent effect”. Further, the EC50 in assay [4] turned out to be 105 µM.
